Test: Stability of MRI-visibility of grafted substrates after incubation in PBS
Type: physicochemical
Settings: grafted on substrates (PP meshes, thread-like shape); two months in PBS medium (pH=7.4) at 37° C.; FIG. 9C
Experimental: Bruker 7T BIOSPEC 70/20, “mini-imaging” configuration (gradient BGA12 675 mt/m, resonator “bird cage” 35 mm). After a set of marker gradient echo sequences, a spin3D echo sequence was acquired (FOV 3*3*1 cm matrix 128*128*48, TR=3000 ms, TE=8 ms (TEeff=16), RF=8, acquisition time of 0:51) with an inversion delay of 1300 ms.
MGE 3D sequences with TR/TE 110/3 ms and angles of 75, 30 and 15° were acquired.
Stability of MRI-visibility for PP modified meshes after 2 months in saline phosphate buffer (pH 7.4, 37° C.) is shown in FIG. 9C.

Substance: 4-Azidoaniline Modified Gd-Diethylene Triamine Pentaacetic Acid (Gd-DTPA-biN3) Complex
- MRI image after incubation (stability of MRI-visibility): does not show any image degradation
